# Test results taken from ChEMBL document CHEMBL1135269, “Benzoindoloquinolines interact with DNA tetraplexes and inhibit telomerase” (Bioorg Med Chem Lett, 2002).
# Legend:
# [1] = target: DNA polymerase I, thermostable (Thermus aquaticus, UniProt P19821); assay: Tested for inhibitory activity against Taq DNA polymerase
# [2] = target: Telomerase reverse transcriptase (Homo sapiens, UniProt O14746); assay: Tested for inhibitory activity against Telomerase in telomerase repeat amplification protocol (TRAP) assay
# Chain of Telomerase reverse transcriptase (O14746 whole entry): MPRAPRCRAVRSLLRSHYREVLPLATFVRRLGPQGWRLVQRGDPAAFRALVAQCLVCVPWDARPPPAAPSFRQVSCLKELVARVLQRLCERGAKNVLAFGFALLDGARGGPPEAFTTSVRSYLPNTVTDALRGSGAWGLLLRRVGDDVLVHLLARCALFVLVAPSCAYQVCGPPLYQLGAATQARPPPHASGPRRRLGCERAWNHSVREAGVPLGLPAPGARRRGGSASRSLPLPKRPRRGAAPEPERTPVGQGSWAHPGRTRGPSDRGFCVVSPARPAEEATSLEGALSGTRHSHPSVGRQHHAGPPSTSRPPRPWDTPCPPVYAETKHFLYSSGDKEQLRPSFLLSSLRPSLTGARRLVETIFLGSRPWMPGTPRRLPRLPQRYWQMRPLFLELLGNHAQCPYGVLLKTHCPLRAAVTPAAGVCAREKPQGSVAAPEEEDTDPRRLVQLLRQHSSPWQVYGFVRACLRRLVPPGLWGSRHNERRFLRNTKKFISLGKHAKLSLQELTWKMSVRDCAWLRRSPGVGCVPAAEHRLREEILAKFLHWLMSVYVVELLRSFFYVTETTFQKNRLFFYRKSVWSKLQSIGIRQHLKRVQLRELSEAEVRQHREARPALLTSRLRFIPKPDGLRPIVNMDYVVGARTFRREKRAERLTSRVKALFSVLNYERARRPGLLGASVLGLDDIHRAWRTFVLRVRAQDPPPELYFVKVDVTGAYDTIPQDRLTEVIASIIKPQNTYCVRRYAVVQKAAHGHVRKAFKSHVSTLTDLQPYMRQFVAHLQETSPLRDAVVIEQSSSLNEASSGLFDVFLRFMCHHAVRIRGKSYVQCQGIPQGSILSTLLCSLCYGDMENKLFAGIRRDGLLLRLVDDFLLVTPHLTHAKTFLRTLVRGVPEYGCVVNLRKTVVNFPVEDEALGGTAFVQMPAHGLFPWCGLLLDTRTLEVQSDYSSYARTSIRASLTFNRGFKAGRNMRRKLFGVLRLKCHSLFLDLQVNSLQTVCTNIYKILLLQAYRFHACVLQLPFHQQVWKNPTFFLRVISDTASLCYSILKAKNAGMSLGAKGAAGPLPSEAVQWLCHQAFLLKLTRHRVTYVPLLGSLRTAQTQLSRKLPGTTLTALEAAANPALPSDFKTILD
# Chain of DNA polymerase I, thermostable (P19821 whole entry): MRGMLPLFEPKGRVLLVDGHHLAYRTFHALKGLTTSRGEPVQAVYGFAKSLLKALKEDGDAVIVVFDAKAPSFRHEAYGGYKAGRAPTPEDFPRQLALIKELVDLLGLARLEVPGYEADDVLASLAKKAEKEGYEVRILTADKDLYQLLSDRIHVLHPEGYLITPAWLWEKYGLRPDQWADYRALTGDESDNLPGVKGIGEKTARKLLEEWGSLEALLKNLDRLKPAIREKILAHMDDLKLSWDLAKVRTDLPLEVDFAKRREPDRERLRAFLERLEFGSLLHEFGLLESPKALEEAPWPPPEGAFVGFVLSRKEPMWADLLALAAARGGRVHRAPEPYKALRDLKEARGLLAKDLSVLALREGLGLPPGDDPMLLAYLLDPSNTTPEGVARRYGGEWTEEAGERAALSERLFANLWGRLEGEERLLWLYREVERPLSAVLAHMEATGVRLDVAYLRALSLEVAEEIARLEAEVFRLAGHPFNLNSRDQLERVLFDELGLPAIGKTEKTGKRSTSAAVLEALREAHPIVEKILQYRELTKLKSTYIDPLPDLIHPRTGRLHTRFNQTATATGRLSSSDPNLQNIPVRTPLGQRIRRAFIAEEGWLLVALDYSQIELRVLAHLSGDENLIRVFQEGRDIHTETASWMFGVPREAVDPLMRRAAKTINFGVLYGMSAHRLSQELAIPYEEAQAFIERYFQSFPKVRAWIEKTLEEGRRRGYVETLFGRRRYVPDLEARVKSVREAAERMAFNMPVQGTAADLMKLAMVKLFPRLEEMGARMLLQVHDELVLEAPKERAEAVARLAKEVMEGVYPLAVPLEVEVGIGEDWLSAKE
IC50 [1],IC50 [2],SMILES
> 10 µM,9.8 µM,COc1ccc2ccc3c([nH]c4c5ccccc5nc(NCCN(C)C)c34)c2c1
2.2 µM,1.1 µM,COc1ccc2ccc3c([nH]c4c5ccccc5nc(NCCCN(C)C)c34)c2c1
5 µM,0.5 µM,CN(C)CCCNc1nc2ccccc2c2[nH]c3c4cc([N+](=O)[O-])ccc4ccc3c12
0.9 µM,1 µM,COc1ccc2c(ccc3c2[nH]c2c4ccccc4nc(NCCCN(C)C)c32)c1
